Assay results published in patent US11116774B2, “Modulators of toll-like receptors for the treatment of HIV” (Gilead Sciences, Inc., priority 2014, dated 2021).
Several values for one entry are separate records, joined by “and”; a condition that tells them apart may be missing. Equal values may be shown once.

Assays:
[1] = tested on: cytokines and chemokines in PBMCs from HIV-infected donors; assay: Induction of cytokines/chemokines ex vivo, Luminex (Example 211); assay type: cell-based, human; details: PBMC supernatant day 2
Description: PBMCs from HIV-infected donors on suppressive cART were isolated, as described previously, and immediately added to tissue culture plates pre-equilibrated at 37° C. with media containing DMSO or the compound of Example 49 (GS-9620) at concentrations from 0.1 nM or 10.0 uM. At day 2 after treatment, cell-free culture supernatants were collected and frozen at −80C for subsequent analysis. Frozen supernatants were thawed at room temperature, and the cytokines and chemokines indicated were quantitated with a custom multiplexed xMAP Luminex® assay following the manufacturer's instructions (Thermo Fisher Scientific Inc., Grand Island, N.Y., custom-designed kit).

SIVmac251 = assay: TLR7 modulating compound in cART treated SIV+ rhesus with undetectable plasma viremia: plasma SIV RNA during dosing and after cART cessation (Example 204); assay type: in vivo, Indian rhesus macaques (Macaca mulatta); details: for Plasma SIV RNA: 0.3 mg/kg oral, on cART
Description: A group of 10 Indian rhesus macaques (Macaca mulatta) were treated with the compound of Example 4 or dosing vehicle of Example 201 (placebo group) in a multiple dose, dose escalation study. The macaques were infected with simian immunodeficiency virus (SIVmac251) by repeat low-dose rectal mucosal challenge. Beginning on day 65 post-infection, after establishment of peak viremia and an early viral chronic set point, the animals were treated with a the cART by sub-cutaneous injection at 1 mL/kg, the administration of which was for approximately one year. During the time of cART administration plasma viral loads decreased to undetectable levels (SIV gag RNA<50 copies/mL) by Day 168 post-infection, and were maintained for approximately 5 months prior to administration of the compound of Example 4 by use of daily cART. In addition, animals were maintained on the same cART regimen when dosed with the compound of Example 4. The amount of antiretrovirals administered to each animal, on a daily basis, in the cART formulation were 20 mg/kg tenofovir, 50 mg/kg emtricitibine (FTC), and 2.5 mg/kg dolutegravir. The animals were administered cART daily from approximately day 65 post-infection, through viral suppression and administration of the compound of Example 4 until approximately two weeks post-last dose of the compound from Example 4 at which time cART was stopped to monitor plasma viral load rebound kinetics.
Beginning on Day 317 post-infection, the animals were dosed once every other week with either the compound of Example 4 or dosing vehicle of Example 201 (placebo group). Four animals were dosed with the compound of Example 4, prepared as described in Example 201. The first week, 1 mL/kg of the 0.1 mg/mL formulation was dosed, corresponding to a dose of 0.1 mg/kg. The third week, 1 mL/kg of the 0.2 mg/mL formulation was dosed, corresponding to a dose of 0.2 mg/kg. On weeks five through thirteen, 1 mL/kg of the 0.3 mg/mL formulation was dosed, corresponding to a dose of 0.3 mg/kg (seven doses in total). The other six animals were controls, of which three were given seven doses of saline by oral gavage once every two weeks; the other three animals were left untreated. Approximately two weeks following the last dose of the compound of Example 4, cART was stopped in the three saline-dosed placebo animals and the four animals who had received the compound of Example 4. Approximately one month later, cART was stopped in the three untreated control animals. Following cART cessation viral loads were monitored for a period of six months.
Each formulation of the compound of Example 4 or dosing vehicle of Example 201 was thawed at room temperature prior to dosing. Animals were dosed by oral gavage via nasogastric tube.
Plasma viral loads (expressed as SIV RNA copies per mL of plasma) were determined by quantitative RT-PCR of the SIV RNA measuring the gag gene transcripts at various times throughout the study. Viral loads for each animal for each study day relative to time of administration of the first dose of the compound of Example 4 are depicted in FIG. 3; dosing days are shown by the arrows on the horizontal x-axis.
After two weeks following the last dose of study drug, cART therapy was also stopped in all dosed (placebo dosed included) animals. In the untreated control group of animals, cART was stopped 30 days later. Table 2 denotes the average viral load chronic set point from day 42-81 following cessation of cART for each of the animals in the study. […] However, when comparing the pre-cART plasma SIV RNA chronic set point to the post-cART cessation chronic set point within the animals administered the compound of Example 4 this was approximately ˜0.5 log10 lower (mean change for all animals treated with the compound of Example 4) than the change observed in those animals in the placebo group (mean change for all animals administered dosing vehicle of Example 201).

[2] = tested on: peripheral CD8 lymphocytes (CD3+CD8+CD4−); assay: Peripheral lymphocyte activation, CD69 by flow cytometry: CD8 lymphocytes (Example 206); assay type: in vivo, rhesus macaque
Source text: During the course of treatment with the compound of Example 4 as described in Example 204, peripheral lymphocyte activation was monitored in the groups dosed with the compound of Example 4 or the dosing vehicle of Example 201 (placebo), by measuring the expression of the early activation marker CD69 on various lymphocyte subsets by flow cytometry methodology. This methodology was used to quantify the percentage of immune cell subsets expressing the early activation marker. Standard data acquisition techniques were employed on a flow cytometer and by the use of antibodies conjugated to fluorescent molecules where the antibodies recognize rhesus macaque cell surface proteins on various immune cell subsets. In animals dosed with the compound of Example 4, whole blood samples were collected for each dose at various time points both at pre- and post-administration of compound. Total PBMCs were stained in the whole blood samples using antibodies that were chosen to be reactive to rhesus CD3, CD4, CD8, NKG2A, CD16 and CD56, each conjugated to different fluorescent probes to delineate CD3+CD4+CD8− lymphocytes, CD3+CD4−CD8+ lymphocytes and CD3-CD8+ NKG2A+CD16+ CD56+ NK cells. The flow cytometry data presented herein are from animals treated with the compound of Example 4.

In the case of `CCCCOc1nc(N)c2c(n1)N(Cc1cccc(CN3CCCC3)c1)CC(=O)N2` [Example 49], the “BAFF fold induced vs. DMSO control” value [1] is reported as <2-fold, the “I-TAC fold induced vs. DMSO control” value [1] is reported as >100-fold and the “IFNα fold induced vs. DMSO control” value [1] is reported as >100-fold. For the same molecule, the “IFNβ fold induced vs. DMSO control” value [1] was <2-fold, the “IFNω fold induced vs. DMSO control” value [1] was >100-fold and the “IL-1 RA fold induced vs. DMSO control” value [1] was >100-fold. For the same molecule, the “IL-4 fold induced vs. DMSO control” value [1] was <2-fold, the “IL-5 fold induced vs. DMSO control” value [1] was <2-fold and the “IL-6 fold induced vs. DMSO control” value [1] was >100-fold. For the same molecule, the “IL-10 fold induced vs. DMSO control” value [1] was >100-fold, the “IL-12 (p70) fold induced vs. DMSO control” value [1] was <2-fold and the “IL-13 fold induced vs. DMSO control” value [1] was <2-fold. For the same molecule, the “IL-17 fold induced vs. DMSO control” value [1] was <2-fold, the “IL-18 fold induced vs. DMSO control” value [1] was <2-fold and the “IL-27 fold induced vs. DMSO control” value [1] was <2-fold. The “IL-31 fold induced vs. DMSO control” value [1] was <2-fold, the “IP-10 fold induced vs. DMSO control” value [1] was >100-fold and the “MCP-1 fold induced vs. DMSO control” value [1] was >100-fold. For the same molecule, the “MIP-1α fold induced vs. DMSO control” value [1] was >100-fold, the “MIP-1β fold induced vs. DMSO control” value [1] was >100-fold and the “MMP-1 fold induced vs. DMSO control” value [1] was <2-fold. For the same molecule, the “SCD40L fold induced vs. DMSO control” value [1] was <2-fold and the “TNFS10 fold induced vs. DMSO control” value [1] was <2-fold.

With `CCCCOc1nc(N)c2c(n1)N(Cc1ccc(CN3CCCC3)cc1)CC(=O)N2` [Example 4] the “Plasma SIV RNA” value (SIVmac251; Dose 4, 1 day post-dose) was under 50 copies/mL, the “Plasma SIV RNA” value (SIVmac251; Dose 4, 3 days post-dose) was under 50 copies/mL and the “Plasma SIV RNA” value (SIVmac251; Dose 4, 7 days post-dose) was under 50 copies/mL. The “Plasma SIV RNA” value (SIVmac251; Dose 4, Pre) was under 50 copies/mL, the “Plasma SIV RNA” value (SIVmac251; Dose 5, 2 days post-dose) was 344 copies/mL and 361 copies/mL and 563 copies/mL and 623 copies/mL and the “Plasma SIV RNA” value (SIVmac251; Dose 5, 7 days post-dose) was under 50 copies/mL. For the same molecule, the “Plasma SIV RNA” value (SIVmac251; Dose 5, Pre) was under 50 copies/mL, the “Plasma SIV RNA” value (SIVmac251; Dose 6, 7 days post-dose) was under 50 copies/mL and the “Plasma SIV RNA” value (SIVmac251; Dose 6, Pre) was under 50 copies/mL. For the same molecule, the “Plasma SIV RNA” value (SIVmac251; Dose 7, 7 days post-dose) was under 50 copies/mL, the “Plasma SIV RNA” value (SIVmac251; Dose 7, Pre) was under 50 copies/mL and the “time virus levels remained undetectable after the last dose” value (SIVmac251; SIV+ rhesus on cART) was 13 days. The “plasma virus levels returned to baseline prior to the following dose” value (SIVmac251; SIV+ rhesus on cART, 0.3 mg/kg doses) was under 50 copies per mL, the “time after dose at which detectable plasma virus was observed” value (SIVmac251; SIV+ rhesus on cART, after each of the last three doses at 0.3 mg/kg, oral, once every other week) was 24 to 72 h and the “pre-cART to post-cART cessation plasma SIV RNA chronic set point change, lower than the change in the placebo group” value (SIVmac251; mean change for all treated animals, set point day 42-81 following cessation of cART) was about 0.5 log10. The “Mean Change in Chronic Set Point” value (SIVmac251; mean of the four dosed animals) was −1.26 -log10 copy/mL, the “Plasma SIV RNA Chronic Set Point Day 42-81 Post-cART Cessation” value (SIVmac251; per animal, after seven doses (0.1, 0.2, 0.3 mg/kg) every other week) was 3,553 copy/mL and 10,062 copy/mL and 20,146 copy/mL and 24,527 copy/mL and the “Plasma SIV RNA Chronic Set Point Day 42-63 Pre-cART” value (SIVmac251; per animal, baseline before cART and before dosing) was 237,667 copy/mL and 76,833 copy/mL and 156,333 copy/mL and 666,333 copy/mL. For the same molecule, the “Change in Chronic Set Point” value (SIVmac251; per animal, post-cART cessation versus pre-cART) was −1.83 -log10 copy/mL and −0.88 -log10 copy/mL and −0.89 -log10 copy/mL and −1.43 -log10 copy/mL, the “mean maximum percent change in CD69 expression on CD8 lymphocytes” value (from here on “mean maximum percent change”) ([2]; all subsequent 0.3 mg/kg doses) was 15.5% and the “mean maximum percent change” value ([2]; dose 0.1 mg/kg, any time point (rise 24 to 72 hours post-dose), pre-dose range 3.3-12.6%) was 7.8%. The “mean maximum percent change” value ([2]; dose 0.2 mg/kg, pre-dose range 3.0-15.7%) was 9.5% and the “mean maximum percent change” value ([2]; first dose of 0.3 mg/kg, pre-dose range 5.0-14.4%) was 17.3%.
